The values below come from US20240343727A1, “PYRIDAZINONE OR PYRIDINONE COMPOUNDS, PREPARATION METHODS AND USES THEREOF” (InventisBio Co., Ltd., priority 2021, published 2024).

The target in this experiment is T1, PARP7 (Homo sapiens, UniProt Q7Z3E1).
T1 sequence (Q7Z3E1 1-657): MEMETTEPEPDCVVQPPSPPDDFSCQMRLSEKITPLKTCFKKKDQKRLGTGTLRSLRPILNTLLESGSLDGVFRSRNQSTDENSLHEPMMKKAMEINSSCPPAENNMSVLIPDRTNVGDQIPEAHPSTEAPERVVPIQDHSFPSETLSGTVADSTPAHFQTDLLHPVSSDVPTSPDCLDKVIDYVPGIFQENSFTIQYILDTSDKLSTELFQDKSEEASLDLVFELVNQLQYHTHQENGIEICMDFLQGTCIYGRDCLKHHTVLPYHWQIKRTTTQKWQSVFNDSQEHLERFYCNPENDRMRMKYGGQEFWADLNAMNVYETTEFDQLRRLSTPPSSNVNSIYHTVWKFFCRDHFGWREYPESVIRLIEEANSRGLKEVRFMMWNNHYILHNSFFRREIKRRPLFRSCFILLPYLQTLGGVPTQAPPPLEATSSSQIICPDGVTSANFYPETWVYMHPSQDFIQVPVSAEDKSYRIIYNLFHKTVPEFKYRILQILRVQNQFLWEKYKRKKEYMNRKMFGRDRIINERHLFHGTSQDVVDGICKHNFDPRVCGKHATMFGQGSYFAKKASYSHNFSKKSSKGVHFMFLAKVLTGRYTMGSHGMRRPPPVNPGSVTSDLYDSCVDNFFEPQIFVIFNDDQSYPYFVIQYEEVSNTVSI
The experiment in a line: PARP7 TR-FRET assay (binding, displacement of biotinylated Probe A). Particulars: 6 nM PARP7, 2 nM Probe A, 25° C., 30 min. Summed up: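 Compound displacement of biotinylated Probe A (2 nM) from PARP7 (6 nM) measured by TR-FRET in HEPES pH 8.0 buffer, 30 min at 25° C. Detection used ULight-anti 6xHis (4 nM) plus Eu-streptavidin (0.25 nM) for 30 min, reading the 665/615 nm ratio. % inhibition was taken against DMSO and no-enzyme wells, and IC50 from a Hill fit.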
Background: Time-resolved FRET reads energy transfer from a long-lived donor to a nearby acceptor.
As to `O=C(c1cccc(Oc2n[nH]c(=O)c(C(F)(F)F)c2N2CC3(CCC3)C2)c1)N1CCN(c2ccc(Cl)cn2)CC1` [Compound 182], the IC50 – broadly, the concentration that gives 50% inhibition – was under 100 nM. The value for `CC(C)(O)c1cnc(N2CCN(C(=O)CC3CN(c4cc(C(F)(F)F)c(=O)[nH]n4)c4cc(F)ccc4O3)CC2)nc1` (single isomer, unassigned) [Compound 348] was under 100 nM. Compound `CO[C@H]1C[C@@H](Nc2c(Oc3cccc(C(=O)N4CCN(c5ncc(C(F)(F)F)cn5)CC4)c3)n[nH]c(=O)c2C(F)(F)F)C1` [Compound 191] gave an IC50 of under 100 nM. To `CC1(C#N)CN(c2c(Oc3cccc(C(=O)N4CCN(c5ncc(C(F)(F)F)cn5)CC4)c3)n[nH]c(=O)c2C(F)(F)F)C1` [Compound 213] belongs under 100 nM; to `O=C(c1cccc(Oc2n[nH]c(=O)c(C(F)(F)F)c2NCC2CC2)c1)N1CCN(c2ncc(C(F)(F)F)cn2)CC1` [Compound 204], under 100 nM.

`O=C(CC1CN(c2cc(C(F)(F)F)c(=O)[nH]n2)c2ccncc2O1)N1CCN(c2ncc(C(F)(F)F)cn2)CC1` (stereo not shown) [Compound 347]: the IC50 is under 100 nM. The value for `C[C@@H]1CN(c2cc(C(F)(F)F)c(=O)[nH]n2)C[C@@H](CC(=O)N2CCN(c3ncc(C(F)(F)F)cn3)CC2)O1` (stereo in doubt) [Compound 112] was under 100 nM; that for `C[C@@H]1CN(C(=O)c2cc(Oc3n[nH]c(=O)c(C(F)(F)F)c3N3CC4(CCC4)C3)ccn2)CCN1c1ncc(C(F)(F)F)cn1` [Compound 352] was under 100 nM. The value for `Cc1c(Oc2cc(C(=O)N3CCN(c4ncc(C(F)(F)F)cn4)CC3)ccc2Cl)n[nH]c(=O)c1C(F)(F)F` [Compound 24] was 100 to 1000 nM; that for `CCOC1CN(c2c(Oc3ccnc(C(=O)N4CCN(c5ncc(C(F)(F)F)cn5)CC4)c3)n[nH]c(=O)c2C(F)(F)F)C1` [Compound 320] was under 100 nM; that for `Cc1c(Oc2ccc(F)c(C(=O)N3CCN(c4ncc(C(F)(F)F)cn4)CC3)c2)n[nH]c(=O)c1C(F)(F)F` [Compound 25] was under 100 nM. In turn, `N#Cc1ccc(N2CCN(C(=O)c3cccc(Oc4n[nH]c(=O)c(C(F)(F)F)c4N4CC5(C4)CC(F)(F)C5)c3)CC2)nc1` [Compound 333] showed an IC50 of under 100 nM. The value for `O=C(c1cccc(Oc2n[nH]c(=O)c(C(F)(F)F)c2N2CC(C(F)F)C2)c1)N1CCN(c2ncc(C(F)(F)F)cn2)CC1` [Compound 72] was under 100 nM.

`C#Cc1ccc2c(=O)[nH]nc(N3CCOC(CC(=O)N4CCN(c5ncc(C(F)(F)F)cn5)CC4)C3)c2c1` (single isomer, unassigned) [Compound 194]: the IC50 is under 100 nM. To `O=C(c1cncc(Oc2n[nH]c(=O)c(C(F)(F)F)c2N2CC3(C2)CC(F)(F)C3)c1)N1CCN(c2ncc(C3CC3)cn2)CC1` [Compound 313] belongs under 100 nM; to `O=C(CC1CN(c2n[nH]c(=O)c3c(Cl)cccc23)CCO1)N1CCN(c2ncc(C(F)(F)F)cn2)CC1` (single isomer, unassigned) [Compound 93], under 100 nM. As to `N#Cc1ccc(N2CCN(C(=O)CC3CN(c4cc(C(F)(F)F)c(=O)[nH]n4)c4cc(Cl)ccc4O3)CC2)nc1` (single isomer, unassigned) [Compound 224], the IC50 is under 100 nM. The value for `N#Cc1cnc(N2CCN(C(=O)CC3CN(c4cc(C(F)(F)F)c(=O)[nH]n4)c4cc(Cl)ccc4O3)CC2)nc1` (single isomer, unassigned) [Compound 293] was under 100 nM; that for `Cc1c(Oc2cc(C(=O)N3CCN(c4ncc(C(F)(F)F)cn4)CC3)ccc2C2CC2)n[nH]c(=O)c1C(F)(F)F` [Compound 64] was under 100 nM; that for `O=C(c1ccc2c(c1)N(c1cc(C(F)(F)F)c(=O)[nH]n1)CCO2)N1CCN(c2ncc(C(F)(F)F)cn2)CC1` [Compound 30] was 100 to 1000 nM. To `C[C@@H]1CN(c2n[nH]c(=O)c3c(F)cccc23)C[C@H](CC(=O)N2CCN(c3ncc(C(F)(F)F)cn3)CC2)O1` (stereo in doubt) [Compound 118] belongs 100 to 1000 nM; to `O=C(c1cccc(Oc2n[nH]c(=O)c(C(F)(F)F)c2N2CC3(CCC3)C2)c1)N1CCN(c2ccc(C3CC3)cn2)CC1` [Compound 177], under 100 nM. The value for `Cc1cccc2c(N3CCOC(CC(=O)N4CCN(c5ncc(C(F)(F)F)cn5)CC4)C3)n[nH]c(=O)c12` (single isomer, unassigned) [Compound 106] was 100 to 1000 nM; that for `CNC1CN(c2c(Oc3cccc(C(=O)N4CCN(c5ncc(C(F)(F)F)cn5)CC4)c3)n[nH]c(=O)c2C(F)(F)F)C1` [Compound 61] was under 100 nM; that for `C[C@@H]1CN(c2cc(C(F)(F)F)c(=O)[nH]n2)C[C@H](CC(=O)N2CCN(c3ncc(C(F)(F)F)cn3)CC2)O1` (stereo in doubt) [Compound 110] was 100 to 1000 nM. `O=C(c1cc(Oc2n[nH]c(=O)c(C(F)(F)F)c2N2CC3(C2)CC(F)(F)C3)ccn1)N1CCN(c2ccc(C(F)(F)F)cn2)CC1` [Compound 148]: the IC50 was under 100 nM.

Take `O=C(CC1CN(c2cc(C(F)(F)F)c(=O)[nH]n2)c2ccccc2O1)N1CCN(c2ccc(C3CC3)cn2)CC1` (single isomer, unassigned) [Compound 286]: the IC50 was over 1000 nM.

`O=C(COC1CCOc2c1n[nH]c(=O)c2Br)N1CCN(c2ncc(C(F)(F)F)cn2)CC1` (single isomer, unassigned) [Compound 9]: the IC50 was over 1000 nM. `N#Cc1ccc2c(c1)N(c1cc(C(F)(F)F)c(=O)[nH]n1)CC(CC(=O)N1CCN(c3ncc(C(F)F)cn3)CC1)O2` (single isomer, unassigned) [Compound 219] registered a half-maximal inhibitory concentration (IC50) of under 100 nM.

`O=C(COC1CCOc2c1n[nH]c(=O)c2C(F)(F)F)N1CCN(c2ncc(C(F)(F)F)cn2)CC1` (single isomer, unassigned) [Compound 10]: the IC50 is under 100 nM. To `Cc1c(N(C)c2cccc(C(=O)N3CCN(c4ncc(C(F)(F)F)cn4)CC3)c2)n[nH]c(=O)c1C(F)(F)F` [Compound 77] belongs under 100 nM.

For the compound `O=C(c1cccc(Oc2n[nH]c(=O)c(C(F)(F)F)c2N2CC3(CCC3)C2)c1)N1CCN(c2ccc(C(F)(F)F)cn2)CC1` [Compound 187], the IC50 is under 100 nM. To `CNC(=O)c1ccc2c(c1)N(c1cc(C(F)(F)F)c(=O)[nH]n1)CC(CC(=O)N1CCN(c3ncc(C(F)(F)F)cn3)CC1)O2` (single isomer, unassigned) [Compound 323] belongs under 100 nM; to `O=C(CC1CN(c2cc(C(F)(F)F)c(=O)[nH]n2)c2cc(F)ccc2O1)N1CCN(c2cnc(C(F)(F)F)cn2)CC1` (single isomer, unassigned) [Compound 292], 100 to 1000 nM; to `C[C@@H]1CN(C(=O)c2cncc(Oc3n[nH]c(=O)c(C(F)(F)F)c3N3CC4(C3)CC(F)(F)C4)c2)CCN1c1ncc(C(F)(F)F)cn1` [Compound 314], under 100 nM.

The compound `C[C@H]1CN(c2n[nH]c(=O)c3cccc(F)c23)C[C@H](CC(=O)N2CCN(c3ncc(C(F)(F)F)cn3)CC2)O1` (stereo in doubt) [Compound 88] showed an IC50 of 100 to 1000 nM. The value for `CCOC1CN(c2c(Oc3cncc(C(=O)N4CCN(c5ncc(C(F)(F)F)cn5)CC4)c3)n[nH]c(=O)c2C(F)(F)F)C1` [Compound 322] was 100 to 1000 nM. Regarding `CNc1c(Oc2cccc(C(=O)N3CCN(c4ncc(C(F)(F)F)cn4)CC3)c2)n[nH]c(=O)c1C(C)=O` [Compound 74], the IC50 is over 1000 nM. Take `O=C(c1cccc(Oc2n[nH]c(=O)c(C(F)(F)F)c2N2CC(C3CC3)C2)c1)N1CCN(c2ncc(C(F)(F)F)cn2)CC1` [Compound 180]: the IC50 is under 100 nM. To `O=C(c1cccc(Oc2n[nH]c(=O)c(C(F)(F)F)c2NC2CC3(COC3)C2)c1)N1CCN(c2ncc(C(F)(F)F)cn2)CC1` [Compound 202] belongs under 100 nM; to `O=C(CC1CN(c2cc(C(F)(F)F)c(=O)[nH]n2)c2ccccc2O1)N1CCN(c2ccc(Cl)cn2)CC1` (single isomer, unassigned) [Compound 260], 100 to 1000 nM. The value for `C[C@@H]1CN(C(=O)c2cc(Oc3n[nH]c(=O)c(C(F)(F)F)c3N3CC4(C3)CC(F)(F)C4)ccn2)CCN1c1cnc(C(F)(F)F)cn1` [Compound 147] was under 100 nM; that for `C[C@@H]1CN(C(=O)CC2CN(c3cc(C(F)(F)F)c(=O)[nH]n3)c3cc(Cl)ccc3O2)CCN1c1ncc(C#N)cn1` (single isomer, unassigned) [Compound 330] was 100 to 1000 nM. To `C[C@@H]1C[C@H](OCC(=O)N2CCN(c3ncc(C(F)(F)F)cn3)CC2)c2n[nH]c(=O)c(C(F)(F)F)c2O1` [Compound 115] belongs 100 to 1000 nM; to `Cc1ccc(C(=O)N2CCN(c3ncc(C(F)(F)F)cn3)CC2)cc1Oc1n[nH]c(=O)c(C(F)(F)F)c1C` [Compound 19], under 100 nM.

In turn, `N#Cc1cnc(N2CCN(C(=O)c3cc(Oc4n[nH]c(=O)c(C(F)(F)F)c4N4CC5(C4)CC(F)(F)C5)ccn3)CC2)nc1` [Compound 305] gave an IC50 of under 100 nM.
